This note sets out measurements from patent US11857537B2, “Use of prostacyclin antagonists for treating ocular surface nociception” (JENIVISION INC., priority 2016, dated 2024).

Structures are written as SMILES. “Also recorded” adds a separate entry of the source.

Test [1] deals with ocular surface nociception induced by corneal scarification in Cynomolgus monkeys. The experiment in a line: Mild corneal abrasion (scarification) model of ocular discomfort, nictation (blinking) rate. The test is classed as in vivo, Cynomolgus monkey. How it is done:
A prostanoid IP receptor antagonist (4,5-dihydro-N-[4-[[4-(1-methylethoxy)phenyl]methyl]phenyl]-1H-imadazol-2-amine RO-1138452, CAY 10441), at a dose of 0.3% w/v in an aqueous 1% polysorbate 80 in Tris-HCL (a standard ocular vehicle used in testing of ophthalmic drugs), was administered topically to the ocular surface of […] Cynomolgus monkeys. Cynomologus monkeys are the closest animal model for humans. A model that replicates an actual clinically encountered ocular condition, namely corneal abrasion, was employed.
As an animal model indicative of both ocular discomfort and pain, mild corneal scarification and measurement of the resultant increased blinking (nictation) rate was employed. The species chosen was the Cynomologous monkey and there are reasons for this selection. […] Increased rate of blinking (nictation) is recognized as a reliable end-point indicative of discomfort and pain and was, therefore, used in the studies described herein. There is a linear correlation between ocular surface sensory-evoked stimulation and blink rate in humans (Wu et al., 2014). Increased blinking frequency is associated with a diverse variety of conditions that elicit ocular discomfort and pain such as air borne noxious contaminants (Lang et al., 2008), acidic solutions (Collejo et al, 2015), dry eye conditions and wearing contact lenses (Wu et al., 2014). Thus, increased blinking rate is a universal indicator of ocular surface nociception resulting in discomfort and pain.
The drug formulation was administered post-scarification of the cornea, and at identical time points on two subsequent days. Ocular discomfort was monitored as the nictation (blinking) rate. Blinking is an established human behavioral response to corneal discomfort and irritation (Lang et al., 2008; Wu et al., 2014; Callejo et al., 2015). […]
A total of eight naïve Cynomolgus monkeys were used. […] The nictation rate (blinking rate) was measured to provide quantification of discomfort. […]

A further test has as its system ocular pain. The test can be described thus: Patient case examples: ocular pain after topical ocular administration. Particulars: Example II: person, extreme ocular discomfort with pain; 0.3% w/v solution, then twice a day. The test is classed as in vivo, human. The source says:
A person was suffering from extreme ocular discomfort which was associated with pain. […] A person suffers a grade 2 chemical eye burn from an acidic substance. Despite being administered prednisolone acetate 1% every two hours, severe ocular pain persists. The physician will administer Formula 3 from Table I, three times a day. […] After 7-21 days, the patient experiences corneal/conjunctival epithelium and keratocytes proliferate. Collagen synthesis begins. A person suffers from aqueous tear deficient dry eye associated occasionally with moderate to severe sharp ocular pain.

As for `CC(C)Oc1ccc(Cc2ccc(NC3=NCCN3)cc2)cc1` [4,5-dihydro-N-[4-[[4-(1-methylethoxy)phenyl]methyl]phenyl]-1H-imadazol-2-amine], in test [1] (0.3% w/v topical once daily on Day 4 and Day 5 after corneal scarification on Day 3, n=4 per group, P<0.01 vs vehicle), the “nictation rate in drug treated eyes compared with vehicle” value was “statistically significantly lower”. In addition, in test [1] (0.3% w/v topical, P≤0.01 non-paired t-test), the “ocular surface nociception induced by scarification” value was “significantly reduced”. Also, the “difference in blinking rate, control vs. treated group” value in test [1] (two days after the surgery (Day 5-16:00)) was “minimal”. Also, in the test on ocular pain, the ocular pain result is “immediate reduction of ocular pain; also recorded: all pain is reduced and eventually disappears”.
